In patent US10800741B2 (ANCUREALL PHARMACEUTICAL (SHANGHAI) CO., LTD., priority 2017, dated 2020):

Experiments:
Assay type in all cases: cell-based, Human
KCL-22 (BCR-ABL) = assay: In vitro growth inhibition of KCL-22 tumor cells (MTT/CCK8); conditions: Homo sapiens, KCL-22; in vitro growth inhibition (or induction of apoptosis), cells cultured 3 to 5 days, MTT (CCK8); read-out: IC50 KCL-22 (BCR-ABL)
Excerpt: (§1) Tumor cell lines are an effective model for studying in vitro tumor growth inhibition. In the present invention, a representative tumor cell line was selected to determine the cell growth inhibition activity of the present compound. All cell lines used were from ATCC, DSMZ, and cell banks of the Chinese Academy of Sciences. Cell culture conditions and methods were in accordance with the requirements of each cell line. Cells were subcultured in vitro for no more than 3 generations each time, and as required, single-clone purification and identification of cell lines could be carried out.
(§2) The cell culture media used were RPMI1640 (Gibco), DMEM (Gibco), MEM (Gibco), L15 (Gibco), IMDM (Gibco), McCOY'S5A, and William's (Gibco). 5-20% fetal bovine serum (Gibco), 1% double antibiotic, 2 mM glutamine, or 1 mM sodium pyruvate were added. The names, species, major gene characteristics, culture media and cell sources of the cell lines used are shown in table 1, wherein “amp” refers to gene amplification. “+++” refers to gene overexpression. The main genetic characteristics of cells were obtained from the COSMIC Cell Lines Project and related research papers, respectively.
(§3) Adherent cells were digested with 0.25% trypsin-EDTA (Gibco). Suspension culture cells were collected by centrifugation (1700 rpm, 3 minutes). The supernatant was discarded and the cells were counted. According to each cell growth cycle, different concentrations of cells were prepared (5˜10×10^4 cells per ml), and inoculated to 96-well plates (Corning), with 100 μl per well, and incubated overnight at 37° C., 5% CO2. The next day, the test compound was added to the cultured cells (2 wells in parallel). The final concentration of the solvent was less than 1/1,000. The cells were further cultured for 3 to 5 days and assayed by MTT.
(§4) The compound was stored at a concentration of 10 mM at −20° C. and diluted to 2- or 10-fold series prior to use. BGJ398 and AC220 were synthesized according to the methods of WO2006420A1 and US2007232604A1, respectively.
(§5) The adherent cells were taken out from the cell culture medium, and immediately added to a freshly prepared complete medium containing 10% CCK8 (5% FBS), 100 ul per hole. The suspended cells were directly added to a CCK8 reagent until reaching a final concentration of 10% and cultured for 1 to 4 hours.
(§6) T=optical density of drug-treated cell wells−optical density of blank control wells; T0=optical density of cell wells before drug treatment−optical density of blank control wells; C=optical density of solvent control wells−optical density of blank control wells. […] The experiments were repeated 1 to 3 times and a statistical analysis of data was conducted.

Karpas 299 (NPM-ALK) = assay: In vitro growth inhibition of Karpas 299 tumor cells (MTT/CCK8); conditions: Homo sapiens, KARPAS-299; in vitro growth inhibition (or induction of apoptosis), cells cultured 3 to 5 days, MTT (CCK8); read-out: IC50 Karpas 299 (NPM-ALK)
Excerpt: as §1, §2, §3, §4, §5, §6

Kasumi-1 (KIT N822K) = assay: In vitro growth inhibition of Kasumi-1 tumor cells (MTT/CCK8); conditions: Homo sapiens, Kasumi 1; in vitro growth inhibition (or induction of apoptosis), cells cultured 3 to 5 days, MTT (CCK8); read-out: IC50 Kasumi-1 (KIT N822K)
Excerpt: as §1, §2, §3, §4, §5, §6

Hep3B2 (FGFR3/4+++) = assay: In vitro growth inhibition of Hep3B2 tumor cells (MTT/CCK8); conditions: Homo sapiens, Hep3B; in vitro growth inhibition (or induction of apoptosis), cells cultured 3 to 5 days, MTT (CCK8); read-out: IC50 Hep3B2 (FGFR3/4+++)
Excerpt: as §1, §2, §3, §4, §5, §6

MOLM-13 (FLT3-ITD) = assay: In vitro growth inhibition of MOLM-13 tumor cells (MTT/CCK8); conditions: Homo sapiens, MOLM-13; in vitro growth inhibition (or induction of apoptosis), cells cultured 3 to 5 days, MTT (CCK8); read-out: IC50 MOLM-13 (FLT3-ITD)
Excerpt: as §1, §2, §3, §4, §5, §6

H1703 (PDGFRa amp) = assay: In vitro growth inhibition of H1703 tumor cells (MTT/CCK8); conditions: Homo sapiens, NCI-H1703; in vitro growth inhibition (or induction of apoptosis), cells cultured 3 to 5 days, MTT (CCK8); read-out: IC50 H1703 (PDGFRa amp)
Excerpt: as §1, §2, §3, §4, §5, §6

KATO III (FGFR2 amp) = assay: In vitro growth inhibition of KATO III tumor cells (MTT/CCK8); conditions: Homo sapiens, KATO III; in vitro growth inhibition (or induction of apoptosis), cells cultured 3 to 5 days, MTT (CCK8); read-out: IC50 KATO III (FGFR2 amp)
Excerpt: as §1, §2, §3, §4, §5, §6

H1581 (FGFR1 amp) = assay: In vitro growth inhibition of H1581 tumor cells (MTT/CCK8); conditions: Homo sapiens, NCI-H1581; in vitro growth inhibition (or induction of apoptosis), cells cultured 3 to 5 days, MTT (CCK8); read-out: IC50 H1581 (FGFR1 amp)
Excerpt: as §1, §2, §3, §4, §5, §6

| SMILES | IC50 (KCL-22 (BCR-ABL)) | IC50 (Karpas 299 (NPM-ALK)) | IC50 (Kasumi-1 (KIT N822K)) | IC50 (Hep3B2 (FGFR3/4+++)) | IC50 (MOLM-13 (FLT3-ITD)) | IC50 (H1703 (PDGFRa amp)) | IC50 (KATO III (FGFR2 amp)) | IC50 (H1581 (FGFR1 amp)) |
| --- | --- | --- | --- | --- | --- | --- | --- | --- |
| COc1cc2nccc(Oc3ccc(NC(=O)Nc4cc(C(C)(C)C)on4)c(Cl)c3)c2cc1C(N)=O [Compound 2, 4-{4-[3-(5-tert-butyl-isoxazol-3-yl)-ureido]-3-chloro-phenoxy}-7-methoxyquinolin-6-carboxamide] | 7.58 nM | 587 nM | 26.1 nM | 25.6 nM | 6.49 nM | 7.9 nM | 0.51 nM | 3.35 nM |
| COc1cc2nccc(Oc3ccc(NC(=O)Nc4cc(C(C)(C)C)on4)c(Br)c3)c2cc1C(N)=O [Compound 3, 4-{3-bromo-4-[3-(5-tert-butyl-isoxazol-3-yl)-ureido]-phenoxy}-7-methoxyquinolin-6-carboxamide] | 14 nM | 725 nM | 27.8 nM | 27.4 nM | 35.4 nM | 16.6 nM | 1.46 nM | 6.87 nM |
| COc1cc2nccc(Oc3ccc(NC(=O)Nc4cc(C(C)(C)C)on4)c(C(F)(F)F)c3)c2cc1C(N)=O [Compound 4] | 10.4 nM | 756 nM | 14.5 nM | 27.8 nM | 122 nM | 21.8 nM | 2.93 nM | 13.2 nM |
| COc1cc(Oc2ccnc3cc(OC)c(C(N)=O)cc23)ccc1NC(=O)Nc1cc(C(C)(C)C)on1 [Compound 5, 4-{4-[3-(5-tert-butyl-isoxazol-3-yl)-ureido]-3-methoxy-phenoxy}-7-methoxyquinolin-6-carboxamide] | 2.15 nM | > 1000 nM | 12.9 nM | 156 nM | 4.26 nM | 18.8 nM | 9.76 nM | 65.3 nM |
| COc1cc2nccc(Oc3ccc(NC(=O)Nc4cc(C(C)(C)C)on4)c(C)c3)c2cc1C(N)=O [Compound 6, 4-{4-[3-(5-tert-butyl-isoxazol-3-yl)-ureido]-3-methyl-phenoxy}-7-methoxyquinolin-6-carboxamide] | 17.8 nM | 689 nM | 26.1 nM | 45.3 nM | 20.9 nM | 15.6 nM | 2.86 nM | 10.6 nM |
| COc1cc2nccc(Oc3ccc(NC(=O)Nc4cc(C(C)(C)C)on4)c(N4CCN(C)CC4)c3)c2cc1C(N)=O [Compound 10, 4-[4-[3-(5-tert-butyl-isoxazol-3-yl)-ureido]-3-(4-methyl-piperazin-1-yl)-phenoxy]-7-methoxyquinolin-6-carboxamide] | > 1000 nM | > 1000 nM | 71.9 nM | > 1000 nM | > 1000 nM | > 1000 nM | > 1000 nM | > 1000 nM |
| COc1cc2nccc(Oc3ccc(N(C)C(=O)Nc4cc(C(C)(C)C)on4)cc3)c2cc1C(N)=O [Compound 11, 4-{4-[3-(5-tert-butyl-isoxazol-3-yl)-1-methyl-ureido]-phenoxy}-7-methoxyquinolin-6-carboxamide] | 28.1 nM | > 1000 nM | 89.8 nM | 677 nM | 2.41 nM | 20.4 nM | 12.1 nM | 270 nM |
| COc1cc2nccc(Oc3ccc(NC(=O)N(C)c4cc(C(C)(C)C)on4)c(Cl)c3)c2cc1C(N)=O [Compound 12, 4-{4-[3-(5-tert-butyl-isoxazol-3-yl)-3-methyl-ureido]-3-chloro-phenoxy}-7-methoxyquinolin-6-carboxamide] | 114 nM | > 1000 nM | 389 nM | 791 nM | 122 nM | 139 nM | 103 nM | 584 nM |
| COc1cc2nccc(Oc3ccc(NC(=O)Nc4cc(C(C)(C)C)no4)c(Cl)c3)c2cc1C(N)=O [Compound 13, 4-{4-[3-(3-tert-butyl-isoxazol-5-yl)-ureido]-3-chloro-phenoxy}-7-methoxyquinolin-6-carboxamide] | 3.19 nM | 252 nM | 5.46 nM | 6.61 nM | 5.41 nM | 9.74 nM | 0.84 nM | 0.86 nM |
| CC(C)CN1CCN(CCCOc2cc3nccc(Oc4ccc(NC(=O)Nc5cc(C(C)(C)C)n[nH]5)c(Cl)c4)c3cc2C(N)=O)CC1 [Compound 89, 4-{4-[3-(5-tert-butyl-2H-pyrazol-3-yl)-ureido]-3-chloro-phenoxy}-7-[3-(4-isobutyl-piperazin-1-yl)-propoxy]-quinolin-6-carboxamide] | 45 nM | 146 nM | 4.48 nM | 19.4 nM | 6.43 nM | 13.1 nM | 1.12 nM | – |
| COc1cc2nccc(Oc3ccc(NC(=O)Nc4cc(C(C)(C)C)nn4C)c(Cl)c3C)c2cc1C(N)=O [Compound 111, 4-{4-[3-(5-tert-butyl-2-methyl-2H-pyrazol-3-yl)-ureido]-3-chloro-2-methyl-phenoxy}-7-methoxy-carboxamide] | 1.07 nM | 55.7 nM | 0.375 nM | 8.41 nM | – | 4.75 nM | 0.1 nM | 2.98 nM |
| COc1cc2nccc(Oc3ccc(NC(=O)Nc4cc(C(C)(C)C)n[nH]4)c(Cl)c3C)c2cc1C(N)=O [Compound 112, 4-{4-[3-(5-tert-butyl-2H-pyrazol-3-yl)-ureido]-3-chloro-2-methyl-phenoxy}-7-methoxy-quinolin-6-carboxamide] | 2.69 nM | 100 nM | 0.406 nM | 15.8 nM | – | 17.3 nM | 0.23 nM | 3.02 nM |
